In PubChem BioAssay (NCI) one finds GI50 and TGI data, which are given here for eight molecules.

Common to all, as to experiment: inhibition of tumour cell growth, NCI panel, 48 h
Test [1] has as its system NCI-H23 lung.
Test [2] has as its system SF-539 CNS.
For test [3], the system named is HOP-62 NSCLC.
The test system of test [4] is NCI/ADR-RES ovarian.
Test [5] has as its system SNB-19 CNS.
Test [6] concerns HT29 colon.
The test system of test [7] is OVCAR-8 ovarian.
Test [8] deals with DU-145 prostate.
Test [9] deals with OVCAR-3 ovarian.
Test [10] concerns CCRF-CEM leukemia.

Molecules are shown by their SMILES.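 Cultured in 96-well plates, cells were exposed to test compound for 48 hours across five concentrations. GI50 = concentration required for 50% inhibition of growth. At the TGI there is no net growth.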

Consider `COc1cc2c(cc1OCCCN1CCN(C(=S)SCCC(C#N)(c3ccccc3)c3ccccc3)CC1)N=C[C@@H]1CCCN1C2=O`, for which the GI50 was 1.07 µM in test [1]; 1450 nM in test [2]; 0.121 µM in [3]; 3.69 µM in test [4]; 2.19 µM in test [5]; 0.944 µM in [6]. Also, the GI50 is 1.31 µM in test [7], 0.469 µM in test [8], 0.488 µM in test [9] and 235 nM in test [10]. In addition, the TGI in [1] was 2.7 µM; in test [2], 3.37 µM; in test [3], 0.456 µM; in test [4], over 51.5 µM; in [6], over 20.7 µM; in test [7] it was over 48.3 µM. For the same molecule, the TGI came out at 1.26 µM in test [9] and 0.537 µM in [10].
Take `C[C@]12CC[C@@H]3c4ccc(OC(=O)N(CCCl)CCCl)cc4CC[C@H]3[C@@H]1CC[C@@H]2OP(=O)(O)O`: the GI50 in test [1] was 38.4 µM; in test [2] it was 22300 nM; in [3], 63 µM; in [4], 49.5 µM; in test [5] it was 28.5 µM; in test [6], 33.7 µM. The GI50 in [7] was over 85.6 µM; in test [8], 59.5 µM; in [9], 46.7 µM; in test [10], 25700 nM. Moreover, the TGI in test [1] is over 100 µM; in [2], over 58.1 µM; in test [3] it was over 100 µM; in test [4], over 100 µM; in test [5], over 57.8 µM; in test [6] it was over 100 µM. In addition, the TGI in test [7] is over 100 µM; in test [8] it was over 100 µM; in test [9] it was over 95.2 µM; in [10] it was over 78.7 µM.
On to `C=C(Br)COc1ccc2c(C)cc(=O)oc2c1`, for which the TGI in test [1], in test [2], in test [3], in test [4], in [5] and in test [6] was over 100 µM in each case. Moreover, the TGI in test [7], in [8], in [9] and in test [10] was over 100 µM each time.
As for `COCCn1c2c([n+](Cc3cnccn3)c1C)C(=O)c1ccccc1C2=O`, the GI50 in test [1] was under 0.01 µM; in test [2], under 10 nM; in test [3], 0.0221 µM; in [5] it was under 0.01 µM; in test [6], 0.0309 µM; in test [7] it was under 0.01 µM. Moreover, the GI50 in test [8] is under 0.01 µM; in test [9], under 0.01 µM; in test [10], 20.7 nM. Also, the TGI in test [1] was under 0.0113 µM; in test [2], 0.0337 µM; in [3], 0.119 µM; in [4], over 100 µM; in [5] it was 0.0153 µM; in test [6] it was 0.111 µM. In addition, the TGI in [7] is under 0.01 µM; in test [8], 0.019 µM; in [9], under 0.01 µM; in test [10] it was 0.345 µM.
In the case of `c1ccc(CC(Nc2cccnc2)c2ccccc2)cc1` (configuration not stated), the TGI in test [1] is 82.2 µM; in test [2], 40.5 µM; in test [3] it was 60.1 µM; in test [4], 68.2 µM; in test [5], over 100 µM; in test [6] it was 32.6 µM. Besides, the TGI was over 100 µM in test [7], over 100 µM in test [8], 34.3 µM in test [9] and 46.2 µM in [10].
As for `COC(=O)[C@]12CC[C@@H](C)[C@H](C)[C@@H]1C1=CC[C@@H]3[C@@](C)(CC#N)C4=C(C[C@@]3(C)[C@]1(C)CC2)OC[C@]4(C)C=O`, the GI50 in test [1] is 3.88 µM; in test [2], 2960 nM; in test [3], 5 µM; in test [4], 4.26 µM; in test [5], 3.77 µM; in test [6] it was 5.85 µM. Further, the GI50 in test [7] is 4.5 µM; in test [8], 4.78 µM; in [9] it was 3.41 µM; in test [10], 3490 nM. In addition, the TGI was 40.7 µM in [1]; 16.6 µM in test [2]; 36.6 µM in test [3]; 38.9 µM in test [4]; over 100 µM in [5]; 41.5 µM in test [6]. Also, the TGI in [7] is over 100 µM; in test [8], over 100 µM; in test [9], 12.2 µM; in test [10] it was 16.9 µM.
On to `CC(=O)Nc1cc2c3c(cccc3c1)-c1ccccc1-2`, for which the GI50 in test [1] is 38.5 µM; in test [2], over 100000 nM; in test [3], 22.7 µM; in test [4], 26.1 µM; in [5], 40.2 µM; in test [6] it was over 100 µM. In addition, the GI50 in test [7] is 45.9 µM; in test [8], 16.3 µM; in [9] it was 52.2 µM; in test [10], 992 nM. Also, the TGI in [1] was over 100 µM; in test [2] it was over 100 µM; in test [3], 69.5 µM; in [4] it was over 100 µM; in test [5] it was over 100 µM; in [6] it was over 100 µM. The TGI in [7] is over 100 µM; in test [8], 30.2 µM; in test [9], over 100 µM; in [10], over 100 µM.
As for `O=C(/C=C/C=C/c1ccc2c(c1)OCO2)N/N=C\c1ccc(O)cc1O`, the GI50 in [1] is 2.11 µM; in test [2] it was 2700 nM; in test [3] it was 1.61 µM; in test [4] it was 1.29 µM; in test [5] it was 2.79 µM; in [6] it was 3.78 µM. Moreover, the GI50 was 2.67 µM in test [7], 3.46 µM in test [8], 0.345 µM in test [9] and 559 nM in test [10]. Further, the TGI was 10.6 µM in test [1]; 11.6 µM in test [2]; 15.7 µM in test [3]; 7.6 µM in test [4]; 24.2 µM in test [5]; 26.2 µM in [6]. Also, the TGI in test [7] was determined as 29.9 µM; in test [8] it was 22.3 µM; in test [9], 12.8 µM; in test [10], 17.9 µM.
